Patent publication US5324821A, “Method of preparing a lipoprotein modified by incorporation of a lipophilic active substance” (Universite Droit et Sante Lille II, priority 1990, dated 1994)

Tested on: LDLs
Assay: Quantities of drug incorporated into LDLs
Type: physicochemical
Details: ametantrone and mitoxantrone and esters; per particle of LDL; ametantrone esters by optical density at 614 nm; incubation 18 hours at 37° C.
Procedure: One mg of drug is dissolved in the minimum quantity of an organic solvent (chloroform) then the solvent is evaporated under reduced pressure.
Two hundred μl of washed Endolipide are then added. The tube is shaken vigorously, swirling for 1 minute to dissolve the drug in the lipid phase. The LDLs are then added in a quantity containing 1 mg of proteins, assayed by the method of Lowry modified by Peterson (see Lowry et al., J. Biol. Chem. 193, 265-275 (1951)) and 5 ml of LPDS. After stirring, the mixture is incubated for 18 hours at 37° C.
The LDLs are then separated by ultracentrifugation according to a KBr density gradient (centrifugation for 24 hours at 4° C. and 40,000 rpm).
The modified LDLs are then dialyzed against an NaCl solution, 140 mM, pH 8, then filtered under sterile conditions (0.22 μm) and stored under nitrogen.
drugs (on the modified LDLs): the ametantrone esters were tested after precipitation of apolipoprotein B with isopropanol. For this purpose, 100 μl of LDL are added to 100 μl of isopropanol and stirred for 1 minute then left to stand overnight at 10° C. with stirring. The mixture is then centrifuged for 30 minutes at 300 rpm. The supernatant is removed and evaporated. The residue is treated with 1 ml of chloroform. The optical density is read off at a wavelength of 614 nm and compared to a reference range of the drug.
The elliptinium esters are tested by HPLC according to the technique described by Samadi-Baboli (thesis cited above).

SMILES	quantity of drug incorporated into LDLs (uptake)
CCCCCCCC/C=C\CCCCCCCC(=O)OCCNCCNc1ccc(NCCNCCO)c2c1C(=O)c1ccccc1C2=O [Ametantrone monooleate]	2 molecules/particle
CCCCCCCC/C=C\CCCCCCCC(=O)OCCNCCNc1ccc(NCCNCCOC(=O)CCCCCCC/C=C\CCCCCCCC)c2c1C(=O)c1ccccc1C2=O [Ametantrone dioleate]	2 molecules/particle
CC/C=C\C/C=C\C/C=C\CCCCCCCC(=O)OCCNCCNc1ccc(NCCNCCO)c2c1C(=O)c1ccccc1C2=O [Ametantrone monolinolenate]	80 molecules/particle
CCCCCCCCCCCCCCCCCC(=O)OCCNCCNc1ccc(NCCNCCO)c2c1C(=O)c1ccccc1C2=O [Ametantrone monostearate]	1 molecules/particle
CC/C=C\C/C=C\C/C=C\CCCCCCCC(=O)OCCNCCNc1ccc(NCCNCCOC(=O)CCCCCCC/C=C\C/C=C\C/C=C\CC)c2c1C(=O)c1c(O)ccc(O)c1C2=O [Mitoxantrone dilinolenate]	22 molecules/particle
CCCCCCCCCCCCCCCC(=O)OCCNCCNc1ccc(NCCNCCOC(=O)CCCCCCCCCCCCCCC)c2c1C(=O)c1ccccc1C2=O [Ametantrone dipalmitate]	2 molecules/particle
O=C1c2c(O)ccc(O)c2C(=O)c2c(NCCNCCO)ccc(NCCNCCO)c21 [Mitoxantrone, reference compound]	1 molecules/particle
CCCCCCCCCCCCCCCCCC(=O)OCCNCCNc1ccc(NCCNCCOC(=O)CCCCCCCCCCCCCCCCC)c2c1C(=O)c1ccccc1C2=O [Ametantrone distearate]	1 molecules/particle
CCCCCCCCCCCCCCCC(=O)OCCNCCNc1ccc(NCCNCCO)c2c1C(=O)c1ccccc1C2=O [Ametantrone monopalmitate]	2 molecules/particle
O=C1c2ccccc2C(=O)c2c(NCCNCCO)ccc(NCCNCCO)c21 [Ametantrone, reference compound]	1 molecules/particle
CC/C=C\C/C=C\C/C=C\CCCCCCCC(=O)OCCNCCNc1ccc(NCCNCCOC(=O)CCCCCCC/C=C\C/C=C\C/C=C\CC)c2c1C(=O)c1ccccc1C2=O [Ametantrone dilinolenate]	90 molecules/particle

Same assay, conditions: elliptinium esters, tested by HPLC; incubation 18 hours at 37° C.

SMILES	quantity of drug incorporated into LDLs (uptake)
CCCCCCCCCCCCCCCC(=O)Oc1ccc2[nH]c3c(C)c4cc[n+](C)cc4c(C)c3c2c1 [Elliptinium palmitate]	58 μg per mg of protein
CCCCCCCCCCCCCCCCCC(=O)Oc1ccc2[nH]c3c(C)c4cc[n+](C)cc4c(C)c3c2c1 [Elliptinium stearate]	37 μg per mg of protein
CCCCCCCC/C=C\CCCCCCCC(=O)Oc1ccc2[nH]c3c(C)c4cc[n+](C)cc4c(C)c3c2c1 [Elliptinium oleate]	83 μg per mg of protein
